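Following 48 hours of exposure in 96-well plates, responses at five concentrations were used to interpolate endpoints linearly. GI50 is the concentration that inhibits growth by half. TGI: total growth inhibition.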
Tests used:
Test in all cases: growth of human tumour cells (NCI), 48 h
COLO 205 colon = system: COLO 205 colon
HCC-2998 colon = system: HCC-2998 colon
HOP-62 NSCLC = system: HOP-62 NSCLC
K-562 leukemia = system: K-562 leukemia
MDA-MB-435 = system: MDA-MB-435
SF-539 CNS = system: SF-539 CNS
SNB-75 CNS = system: SNB-75 CNS
UACC-257 melanoma = system: UACC-257 melanoma

SMILES	TGI (COLO 205 colon)	TGI (HCC-2998 colon)	TGI (HOP-62 NSCLC)	TGI (K-562 leukemia)	TGI (MDA-MB-435)	TGI (SF-539 CNS)	TGI (SNB-75 CNS)	TGI (UACC-257 melanoma)	GI50 (COLO 205 colon)	GI50 (HCC-2998 colon)	GI50 (HOP-62 NSCLC)	GI50 (K-562 leukemia)	GI50 (MDA-MB-435)	GI50 (SF-539 CNS)	GI50 (SNB-75 CNS)	GI50 (UACC-257 melanoma)
O=[N+]([O-])c1ccccc1N=Nc1c(O)[nH]c2ccccc12	> 100 µM	> 100 µM	> 48 µM	> 100 µM	> 100 µM	23.9 µM	68.8 µM	> 100 µM	–	–	–	–	–	–	–	–
[Cu+2].[O-]c1ccc2ccccc2c1N=Nc1ccccc1.[O-]c1ccc2ccccc2c1N=Nc1ccccc1	> 100 µM	> 100 µM	> 100 µM	> 100 µM	> 100 µM	> 100 µM	> 100 µM	> 100 µM	–	–	–	–	–	–	–	–
CCC[C@H](N[C@@H]1CCc2cc(F)cc(F)c2C1)C(=O)Nc1cn(C(C)(C)CNCC(C)(C)C)cn1	26.9 µM	> 81.1 µM	75.1 µM	> 89.2 µM	53.2 µM	34.6 µM	64.8 µM	37.7 µM	12.5 µM	17.8 µM	20.8 µM	8.33 µM	17 µM	16.7 µM	3.68 µM	13.2 µM
O=C(O)C1C2CC3C(OC(=O)C31)C2Br (centres undefined)	> 100 µM	–	> 100 µM	> 88.9 µM	> 100 µM	> 100 µM	> 100 µM	> 100 µM	–	–	–	–	–	–	–	–
CC(C)=CCc1c(O)cc(/C=C/c2cc(O)c3c(c2)C[C@@H]2C(C)(C)[C@H](O)[C@H](O)C[C@@]2(C)O3)cc1O	3.82 µM	4.17 µM	> 7.95 µM	> 9.25 µM	4.22 µM	2.2 µM	0.958 µM	> 10 µM	1.37 µM	1.29 µM	1.38 µM	0.0154 µM	0.662 µM	0.00532 µM	< 0.001 µM	2.62 µM
CCOC(=O)CC1(O)C=CC(=O)C=C1	6.19 µg/mL	4.68 µg/mL	5.29 µg/mL	10.8 µg/mL	4.89 µg/mL	2.68 µg/mL	4.38 µg/mL	2.09 µg/mL	2.59 µg/mL	2.56 µg/mL	2.82 µg/mL	1.37 µg/mL	2.35 µg/mL	0.581 µg/mL	1.95 µg/mL	0.883 µg/mL
CCOc1ccccc1/C=C1\NC(=O)N(/C=C2\C(=O)Oc3ccccc3C2=O)C1=O	> 100 µM	> 100 µM	> 100 µM	–	> 100 µM	> 100 µM	> 100 µM	> 100 µM	–	–	–	–	–	–	–	–
CS(=O)(=O)CCNCc1ccc(-c2ccc3ncnc(Nc4ccc(OCc5cccc(C(F)(F)F)c5)cc4)c3c2)o1	> 15.5 µM	8.26 µM	16.6 µM	15 µM	10.7 µM	9.75 µM	> 21.1 µM	7.49 µM	6.83 µM	4.46 µM	6.53 µM	3.18 µM	4.71 µM	4.66 µM	8.21 µM	3.79 µM
Brc1ccc([I+]c2ccc(Br)cc2)cc1	2.68 µM	8.12 µM	–	–	17 µM	4.28 µM	8.03 µM	5.53 µM	1.18 µM	1.32 µM	–	–	1.94 µM	1.37 µM	1.6 µM	2.06 µM
CC(NS(C)(=O)=O)c1ccccc1 (centres undefined)	> 100 µM	> 100 µM	> 100 µM	> 100 µM	> 100 µM	> 100 µM	> 100 µM	> 100 µM	–	–	–	–	–	–	–	–

— PubChem BioAssay (NCI)
